Test results: patent US10543196B2, “Oral dosage forms of bendamustine” (priority 2008, dated 2020)
Where a name gives a salt, the structure may show the parent alone.

Assays:
[1] = B6D2F1-mice; cited from earlier work
[2] = patients, oral doses of 250-350 mg, cited from earlier work
[3] = Solubility of bendamustine hydrochloride; type: physicochemical
From the text: Therefore it is not surprising that the oral bendamustine compositions, as investigated by Preiss et al. and Weber gave rise to relatively poor bioavailability results and a large inter-individual variability.

[4] = Stability of an aqueous solution of bendamustine versus pH; type: physicochemical; conditions: pH>5

SMILES	Bioavailability (absorption from the gastro-intestinal tract) [1]	Time at which maximal plasma levels were detectable after oral administration ([2]; capsules of 25 mg)	Solubility in a range of organic solvents [3]	Solubility in ethanol and methanol [3]	Solubility in water ([3]; pH of 2.0)	Hydrolytic decomposition in aqueous solution [4]	Oral bioavailability, range ([2]; capsules)
Cn1c(CCCC(=O)O)nc2cc(N(CCCl)CCCl)ccc21 [bendamustine hydrochloride]	about 40%	≤ 1 h	slightly or very slightly soluble	good solubility	sparingly soluble		
Cn1c(CCCC(=O)O)nc2cc(N(CCCl)CCCl)ccc21 [bendamustine, 4-[5-[bis(2-chloroethyl)amino]-1-methylbenzimidazo-2-yl]butanoic acid]						the decomposition proceeds rapidly	25-94%
